Where two headings read alike, the source gives them in different places. Values belong to the compound of their own block, whether it stands above or below them.
Key:
PC3 (prostate) [1] = test: cell growth inhibition, dictyostatin analogs, PC3; type: cell-based; conditions: for GI50: read-out: GI50 PC3
Protocol: (§1) The C(6)- and C(12)-(4-azidobutyl) analogs 1 and 2 as well as triazole 26 and amide 27 were assayed for cell growth inhibition against four cell lines (PC3 (prostate), 1A9 (ovarian), A549 (lung), and DLD1 (colon)) alongside reference samples of synthetic dictyostatin and paclitaxel (Table 1a).

1A9 (ovarian) = test: cell growth inhibition, dictyostatin analogs, 1A9; type: cell-based; conditions: for GI50: read-out: GI50 1A9
Protocol: as §1

A549 (lung) = test: cell growth inhibition, dictyostatin analogs, A549; type: cell-based; conditions: for GI50: Homo sapiens
Protocol: as §1

DLD1 (colon) = test: cell growth inhibition, dictyostatin analogs, DLD1; type: cell-based; conditions: for GI50: Homo sapiens
Protocol: as §1

[2] = tested on: PC3 (prostate), 1A9 (ovarian), A549 (lung), and DLD1 (colon) cell lines; test: cell growth inhibition, dictyostatin analogs, summary over four cell lines; type: cell-based
Protocol: as §1

OVCAR8 (ovarian) = test: cell growth inhibition, Epo B analogs, OVCAR8; type: cell-based
Protocol: (§2) Compounds 19, 20 and 21 were assayed for cell growth inhibition against four cell lines (PC3 (prostate), MCF7 breast), H522 (lung), and OVCAR8 (ovarian)) alongside reference samples of Epo A, ixabepilone and taxol (Table 1).

PC3 (prostate) [3] = test: cell growth inhibition, Epo B analogs, PC3; type: cell-based; conditions: read-out: IC50 PC3 (Prostate)
Protocol: as §2

H522 (lung) = test: cell growth inhibition, Epo B analogs, H522; type: cell-based
Protocol: as §2

MCF7 (breast) = test: cell growth inhibition, Epo B analogs, MCF7; type: cell-based
Protocol: as §2

[4] = literature; cited from earlier work
[5] = Homo sapiens, OVCAR-8, read-out: IC50 OVCAR8 (Ovarian)
[6] = Homo sapiens, NCI-H522, read-out: IC50 H522 (Lung)
[7] = Homo sapiens, MCF7, read-out: IC50 MCF7 (Breast)
[8] = Homo sapiens, OVCAR-8, OVCAR8 (Ovarian) cell line, read-out: IC50 OVCAR8 (Ovarian)
[9] = Homo sapiens, NCI-H522, H522 (Lung) cell line, read-out: IC50 H522 (Lung)
[10] = Homo sapiens, MCF7 (Breast) cell line, read-out: IC50 MCF7 (Breast)

Compound: C=C/C=C\[C@H](C)[C@@H]1OC(=O)/C=C\C=C\[C@@H](CCCCN=[N+]=[N-])[C@@H](O)C[C@H](O)/C=C\[C@H](C)[C@H](O)[C@@H](C)C[C@@H](C)CC[C@@H](O)[C@@H]1C [C(6) analog 1]
GI50 (PC3 (prostate) [1]; Prostate cell): 1.9 nM | GI50 (1A9 (ovarian)): 2.2 nM | GI50 (A549 (lung); A549, read-out: GI50 A549): 1.1 nM | GI50 (DLD1 (colon); DLD-1, read-out: GI50 DLD1): 1.1 nM | GI50 values relative to dictyostatin ([2]; four cell lines): only slightly attenuated relative to dictyostatin

Compound: C/C(=C\c1csc(C)n1)[C@@H]1C[C@@H]2OC2(C)CCC[C@H](C)[C@H](O)[C@@H](CCCCN=[N+]=[N-])C(=O)C(C)(C)[C@@H](O)CC(=O)O1 (stereo partly drawn) [Compound 19]
IC50 (OVCAR8 (ovarian); [5]): 1 nM | IC50 (PC3 (prostate) [3]; Prostate cell): 2.1 nM | IC50 (H522 (lung); [6]): 0.4 nM | IC50 (MCF7 (breast); [7]): < 0.65 nM

Compound: CC(=O)NCCCC[C@H]1C(=O)C(C)(C)[C@@H](O)CC(=O)O[C@H](/C(C)=C/c2csc(C)n2)C[C@@H]2OC2(C)CCC[C@H](C)[C@@H]1O (stereo partly drawn) [Compound 21]
IC50 (OVCAR8 (ovarian); [5]): 2.2 nM | IC50 (PC3 (prostate) [3]; Prostate cell): 1 nM | IC50 (H522 (lung); [6]): 0.6 nM | IC50 (MCF7 (breast); [7]): ≤ 0.65 nM

Compound: C/C(=C\c1csc(C)n1)[C@@H]1C[C@@H]2O[C@@H]2CCC[C@H](C)[C@H](O)[C@@H](C)C(=O)C(C)(C)[C@@H](O)CC(=O)O1 [Epo A, epothilone A]
IC50 (OVCAR8 (ovarian); OVCAR8 (Ovarian) cell line, read-out: IC50 OVCAR8 (Ovarian)): 6 nM | IC50 (PC3 (prostate) [3]; PC3 (Prostate) cell line): 7 nM | IC50 (H522 (lung); H522 (Lung) cell line, read-out: IC50 H522 (Lung)): 5.5 nM | IC50 (MCF7 (breast); MCF7 (Breast) cell line, read-out: IC50 MCF7 (Breast)): 7 nM

IC50 (OVCAR8 (ovarian); [8]): 3.3 nM | IC50 (PC3 (prostate) [3]; PC3 (Prostate) cell line): 4 nM | IC50 (H522 (lung); [9]): 2.5 nM | IC50 (MCF7 (breast); [10]): 2 nM
Compound: C/C(=C\c1csc(C)n1)[C@@H]1C[C@@H]2O[C@]2(C)CCC[C@H](C)[C@H](O)[C@@H](C)C(=O)C(C)(C)[C@@H](O)CC(=O)N1 [Ixabepilone]

IC50 (OVCAR8 (ovarian); [8]): 1.9 nM | IC50 (PC3 (prostate) [3]; PC3 (Prostate) cell line): 6 nM | GI50 (PC3 (prostate) [1]; PC3 (Prostate) cell line): 1.9 nM | IC50 (H522 (lung); [9]): 2.6 nM | IC50 (MCF7 (breast); [10]): < 0.13 nM | GI50 (A549 (lung); A549 (lung) cell line, read-out: GI50 A549): 1.2 nM | GI50 (DLD1 (colon); DLD-1, DLD1 (colon) cell line, read-out: GI50 DLD1): 15 nM
Compound: CC(=O)O[C@H]1C(=O)[C@@]2(C)[C@H]([C@H](OC(=O)c3ccccc3)[C@]3(O)C[C@H](OC(=O)[C@H](O)[C@@H](NC(=O)c4ccccc4)c4ccccc4)C(C)=C1C3(C)C)[C@]1(OC(C)=O)CO[C@@H]1C[C@@H]2O [Taxol, paclitaxel, reference compound]
GI50 (1A9 (ovarian); 1A9 (ovarian) cell line): 0.4 nM

Compound: C=C/C=C\[C@H](C)[C@@H]1OC(=O)/C=C\C=C\[C@@H](CCCCNC(C)=O)[C@@H](O)C[C@H](O)/C=C\[C@H](C)[C@H](O)[C@@H](C)C[C@@H](C)CC[C@@H](O)[C@@H]1C [amide 27]
GI50 (PC3 (prostate) [1]; Prostate cell): 50 nM | GI50 (1A9 (ovarian)): 30 nM | GI50 (A549 (lung); A549, read-out: GI50 A549): 22 nM | GI50 (DLD1 (colon); DLD-1, read-out: GI50 DLD1): 32 nM | reduction in potency relative to azide 1 ([2]; against all four cell lines): 1-2 orders of magnitude

Compound: C=C/C=C\[C@H](C)[C@@H]1OC(=O)/C=C\C=C\[C@@H](C)[C@@H](O)C[C@H](O)/C=C\[C@H](C)[C@H](O)[C@@H](C)C[C@@H](C)CC[C@@H](O)[C@@H]1C [dictyostatin]
GI50 (PC3 (prostate) [1]; Prostate cell): 1.3 nM | GI50 (1A9 (ovarian)): 0.8 nM | GI50 (A549 (lung); A549, read-out: GI50 A549): 0.3 nM | GI50 (DLD1 (colon); DLD-1, read-out: GI50 DLD1): 0.4 nM

Compound: C=C/C=C\[C@H](C)[C@@H]1OC(=O)/C=C\C=C\[C@@H](CCCCn2nnc3c2CC[C@@H]2[C@@H](CO)[C@@H]2CC3)[C@@H](O)C[C@H](O)/C=C\[C@H](C)[C@H](O)[C@@H](C)C[C@@H](C)CC[C@@H](O)[C@@H]1C [triazole 26]
activity relative to azide 1 (PC3 (prostate) [1]; PC3 cell line): only slightly diminished from that of azide 1 | GI50 (PC3 (prostate) [1]; Prostate cell): 4.8 nM | activity relative to azide 1 (1A9 (ovarian); 1A9 cell line): only slightly diminished from that of azide 1 | GI50 (1A9 (ovarian)): 8.4 nM | activity relative to azide 1 (A549 (lung); A549 cell line): more substantial (though not catastrophic) reductions in potency | GI50 (A549 (lung); A549, read-out: GI50 A549): 25 nM | activity relative to azide 1 (DLD1 (colon); DLD1 cell line): more substantial (though not catastrophic) reductions in potency | GI50 (DLD1 (colon); DLD-1, read-out: GI50 DLD1): 13 nM

Compound: C(6)-epi dictyostatin
potency relative to the natural product dictyostatin, in words [4]: as potent as the natural product

Compound: C(6)-normethyl dictyostatin
loss of potency relative to the natural product dictyostatin [4]: ≤ 1 order of magnitude

Reference: patent US10683288B2, “Epothilone B and dictyostatin analogs, their preparation and use” (The Trustees of Columbia University in the City of New York, priority 2015, dated 2020)
